Consider eight compounds from patent publication EP0933350A1, “Tricyclic retinoids, methods for their production and use” (LIGAND PHARMACEUTICALS INCORPORATED, priority 1994, dated 1996).

One assay has as its system RPMI 8226 cell line. As to the kind of experiment: viability (tetrazolium dye, mitochondrial function). The conditions noted are these: Homo sapiens, 96 hours, read-out: MTS IC50. Format: cell-based.
The test system of a further assay is ME 180 cell line. Described as above. Format: cell-based. The conditions noted are these: Homo sapiens, 96 hours, read-out: MTS IC50.
A further assay relates to AML-193 cell line. Described as above. It is filed as cell-based. To be noted: Homo sapiens, 96 hours, read-out: MTS IC50.
For assay [1], the target named is T1, RARγ (Homo sapiens, UniProt P13631).
T1 sequence (P13631 1-454): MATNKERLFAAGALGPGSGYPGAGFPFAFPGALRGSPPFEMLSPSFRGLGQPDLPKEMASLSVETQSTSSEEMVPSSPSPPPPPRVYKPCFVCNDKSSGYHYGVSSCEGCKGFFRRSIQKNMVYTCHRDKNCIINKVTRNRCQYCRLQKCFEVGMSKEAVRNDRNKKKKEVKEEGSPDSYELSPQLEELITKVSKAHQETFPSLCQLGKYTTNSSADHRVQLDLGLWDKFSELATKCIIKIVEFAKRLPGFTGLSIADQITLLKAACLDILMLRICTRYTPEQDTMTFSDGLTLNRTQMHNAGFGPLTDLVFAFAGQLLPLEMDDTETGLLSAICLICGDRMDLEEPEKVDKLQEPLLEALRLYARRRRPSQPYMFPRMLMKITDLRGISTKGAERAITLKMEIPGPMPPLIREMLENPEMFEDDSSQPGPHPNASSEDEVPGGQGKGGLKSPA
As to the kind of experiment: competitive binding of tritiated retinoids to retinoid receptors. The conditions noted are these: competition with tritiated retinoid, Cheng-Prussof equation.

The target of assay [2] is T2, RARβ (Homo sapiens, UniProt P10826).
T2 sequence (P10826 1-455): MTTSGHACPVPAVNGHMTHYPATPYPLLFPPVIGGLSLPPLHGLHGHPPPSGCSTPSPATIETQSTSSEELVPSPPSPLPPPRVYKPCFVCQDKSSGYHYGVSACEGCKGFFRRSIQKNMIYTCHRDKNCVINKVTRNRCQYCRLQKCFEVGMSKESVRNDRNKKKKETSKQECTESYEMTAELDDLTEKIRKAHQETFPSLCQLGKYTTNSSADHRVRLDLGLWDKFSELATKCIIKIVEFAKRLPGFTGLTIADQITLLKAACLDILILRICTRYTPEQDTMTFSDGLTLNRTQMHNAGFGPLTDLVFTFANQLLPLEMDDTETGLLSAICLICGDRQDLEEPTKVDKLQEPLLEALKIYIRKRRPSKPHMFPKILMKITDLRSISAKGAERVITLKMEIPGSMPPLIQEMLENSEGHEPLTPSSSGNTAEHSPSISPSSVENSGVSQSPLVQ
The description is as above. The conditions noted are these: competition with tritiated retinoid, Cheng-Prussof equation.

The target of assay [3] is T1, RARγ. As to the kind of experiment: co-transfection assay (RAR/RXR agonist activity, luciferase reporter in CV-1 cells). Format: cell-based. To be noted: potency = EC50, agonist, 40 hours, read-out: RARγ Pot. (In general: Reporter assays use an easily measured gene product as a stand-in for the process of interest.)
The target of assay [4] is T3, RARα (Homo sapiens, UniProt P10276).
T3 sequence (P10276 1-462): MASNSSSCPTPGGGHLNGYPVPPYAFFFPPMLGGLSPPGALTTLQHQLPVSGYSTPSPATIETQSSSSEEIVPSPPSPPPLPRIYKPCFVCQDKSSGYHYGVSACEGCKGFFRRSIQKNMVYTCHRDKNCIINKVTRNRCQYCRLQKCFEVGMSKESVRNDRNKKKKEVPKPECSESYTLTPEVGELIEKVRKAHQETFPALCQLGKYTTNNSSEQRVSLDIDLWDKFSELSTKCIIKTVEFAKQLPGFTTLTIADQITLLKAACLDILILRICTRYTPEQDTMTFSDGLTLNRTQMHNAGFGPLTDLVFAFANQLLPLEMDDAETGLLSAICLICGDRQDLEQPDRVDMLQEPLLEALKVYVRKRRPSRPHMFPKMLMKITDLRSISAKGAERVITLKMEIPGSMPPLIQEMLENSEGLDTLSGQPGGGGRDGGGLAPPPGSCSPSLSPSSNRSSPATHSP
The assay is described as above. Format: cell-based. To be noted: read-out: RARα Pot.

For assay [5], the target named is T4, RXRβ (Mus musculus, UniProt P28704).
T4 sequence (P28704 1-520): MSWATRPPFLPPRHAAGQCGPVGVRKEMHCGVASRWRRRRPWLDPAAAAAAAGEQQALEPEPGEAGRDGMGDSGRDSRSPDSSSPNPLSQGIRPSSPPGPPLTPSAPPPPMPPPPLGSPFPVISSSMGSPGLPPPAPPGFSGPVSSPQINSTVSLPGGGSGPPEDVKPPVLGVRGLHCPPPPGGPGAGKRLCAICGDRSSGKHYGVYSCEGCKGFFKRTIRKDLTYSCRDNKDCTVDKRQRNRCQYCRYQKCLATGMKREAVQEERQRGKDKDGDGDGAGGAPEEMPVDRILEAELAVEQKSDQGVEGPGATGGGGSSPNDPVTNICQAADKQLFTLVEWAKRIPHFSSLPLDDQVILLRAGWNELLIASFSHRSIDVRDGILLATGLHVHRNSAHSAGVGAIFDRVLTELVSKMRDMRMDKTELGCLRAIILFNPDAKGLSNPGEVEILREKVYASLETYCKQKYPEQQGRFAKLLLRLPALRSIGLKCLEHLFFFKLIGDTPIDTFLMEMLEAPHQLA
The description is as above. Format: cell-based. The conditions noted are these: read-out: RXRβ Pot.

Assay [6] has as its target T4, RXRβ. As to the kind of experiment: competitive binding of tritiated retinoids to retinoid receptors. To be noted: competition with tritiated retinoid, Cheng-Prussof equation.
Assay [7] addresses T5, RXRα (Homo sapiens, UniProt P19793).
T5 sequence (P19793 1-462): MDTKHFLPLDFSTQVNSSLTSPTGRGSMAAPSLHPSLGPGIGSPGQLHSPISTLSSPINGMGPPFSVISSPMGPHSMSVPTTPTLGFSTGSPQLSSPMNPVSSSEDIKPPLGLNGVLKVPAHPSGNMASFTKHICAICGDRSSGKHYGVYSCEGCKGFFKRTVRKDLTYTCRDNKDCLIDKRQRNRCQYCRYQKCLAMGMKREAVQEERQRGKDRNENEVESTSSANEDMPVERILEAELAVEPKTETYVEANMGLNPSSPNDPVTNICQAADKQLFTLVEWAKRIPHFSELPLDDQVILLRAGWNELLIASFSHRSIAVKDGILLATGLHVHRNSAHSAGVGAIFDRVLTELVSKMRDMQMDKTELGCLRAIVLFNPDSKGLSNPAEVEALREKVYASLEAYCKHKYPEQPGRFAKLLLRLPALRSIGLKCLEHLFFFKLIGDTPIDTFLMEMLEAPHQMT
The description is as above. The conditions noted are these: competition with tritiated retinoid, Cheng-Prussof equation.

The target in assay [8] is T6, RXRγ (Mus musculus, UniProt P28705).
T6 sequence (P28705 1-463): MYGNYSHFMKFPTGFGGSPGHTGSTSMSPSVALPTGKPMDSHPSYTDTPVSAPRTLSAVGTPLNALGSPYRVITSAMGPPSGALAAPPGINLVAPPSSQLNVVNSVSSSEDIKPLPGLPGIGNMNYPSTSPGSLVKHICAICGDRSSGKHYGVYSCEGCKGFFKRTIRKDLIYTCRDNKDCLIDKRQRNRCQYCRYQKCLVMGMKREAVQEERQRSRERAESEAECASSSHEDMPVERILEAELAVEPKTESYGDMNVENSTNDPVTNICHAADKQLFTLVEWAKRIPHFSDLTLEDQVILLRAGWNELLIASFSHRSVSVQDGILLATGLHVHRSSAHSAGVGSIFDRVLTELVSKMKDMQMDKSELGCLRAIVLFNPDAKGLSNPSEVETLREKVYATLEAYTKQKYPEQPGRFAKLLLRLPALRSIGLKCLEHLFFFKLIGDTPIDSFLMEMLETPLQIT
The assay is described as above. To be noted: competition with tritiated retinoid, Cheng-Prussof equation.

Assay [9] deals with T7, RARβ (Homo sapiens, UniProt P10826).
T7 sequence (P10826 1-448 isoform P10826-2): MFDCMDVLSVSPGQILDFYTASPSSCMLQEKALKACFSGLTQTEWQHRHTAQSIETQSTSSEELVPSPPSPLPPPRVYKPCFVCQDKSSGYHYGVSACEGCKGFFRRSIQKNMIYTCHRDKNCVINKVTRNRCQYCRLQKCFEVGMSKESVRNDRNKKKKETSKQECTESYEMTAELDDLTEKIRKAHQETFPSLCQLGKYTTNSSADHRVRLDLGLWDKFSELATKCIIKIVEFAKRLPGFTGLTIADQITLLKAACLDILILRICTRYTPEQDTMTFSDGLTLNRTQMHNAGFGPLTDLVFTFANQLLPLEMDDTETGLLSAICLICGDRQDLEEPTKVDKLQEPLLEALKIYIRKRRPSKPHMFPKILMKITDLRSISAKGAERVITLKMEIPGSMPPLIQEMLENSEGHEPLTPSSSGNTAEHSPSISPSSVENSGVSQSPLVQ
Nature of the assay: co-transfection assay (RAR/RXR agonist activity, luciferase reporter in CV-1 cells). Format: cell-based. The conditions noted are these: potency = EC50, agonist, 40 hours, read-out: RARβ Pot.

For assay [10], the target named is T6, RXRγ. Described as above. To be noted: read-out: RXRγ Pot. It is filed as cell-based.
The target of assay [11] is T3, RARα. Nature of the assay: competitive binding of tritiated retinoids to retinoid receptors. The conditions noted are these: competition with tritiated retinoid, Cheng-Prussof equation.
The target of assay [12] is T5, RXRα. As to the kind of experiment: co-transfection assay (RAR/RXR agonist activity, luciferase reporter in CV-1 cells). It is filed as cell-based. The conditions noted are these: read-out: RXRα Pot.

For the compound `CC1=C(/C=C/C(C)=C/C=C/C(C)=C/C(=O)O)C(C)(C)CCC1` [ATRA, all-trans retinoic acid, reference compound], the IC50 in the assay on RPMI 8226 cell line came to 756 nM; with ME 180 cell line, 890 nM; with AML-193 cell line it was 1000 nM.

As to `CCN1CC\C(=C/C=C/C(C)=C/C(=O)O)c2cc3c(cc21)C(C)(C)CCC3(C)C` [Compound 147b, (2E,4E)-3-methyl-6-[(E)1-ethyl-6,6,9,9-tetramethyl-2,3,6,7,8,9-hexahydro-1H-benzo[g]quinolin-4-ylidene]hexa-2,4-dienoic acid], the dissociation constant Kd on RARγ [1] worked out at 8 nM; at RARβ [2], 4 nM; on RXRβ [6], 548 nM; on RXRα [7], 433 nM; at RXRγ [8] it was 724 nM; at RARα [11] it was 6 nM. The EC50 at RARγ [3] amounted to 1 nM; at RARα [4], 35 nM; at RXRβ [5] it was 579 nM; at RARβ [9] it was 4 nM; at RXRγ [10], 1470 nM.

As to `CC(/C=C/CN1CCCc2c1ccc1c2C(C)(C)CCC1(C)C)=C\C(=O)O` [Compound 143b, (2E,4E)-3-Methyl-6-(1,2,3,4,7,8,9,10-octahydro-7,7,10,10-tetramethylbenzo[f]quinolin-4-yl)hexa-2,4-dienoic acid], the EC50 on RARγ [3] is 1880 nM; on RARα [4], above 10000 nM; at RXRβ [5], 472 nM; on RXRα [12], 393 nM; at RARβ [9], 466 nM; on RXRγ [10] it was 247 nM.

With `CC(/C=C/C=C1\CCc2c1ccc1c2C(C)(C)CCC1(C)C)=C\C(=O)O` [Compound 135b, (2E,4E)-3-Methyl-6-[(E)-2,3,6,7,8,9-hexahydro-6,6,9,9-tetramethyl-1H-cyclopenta[a]naphthalen-3-ylidene]hexa-2,4-dienoic acid], the EC50 at RARγ [3] is 47 nM; at RARα [4], 1170 nM; on RXRβ [5], 1980 nM; on RXRα [12], 2780 nM; at RARβ [9], 53 nM; at RXRγ [10], 2530 nM.

Consider `CC(/C=C/C(=O)N1CCc2cc3c(cc21)C(C)(C)CCC3(C)C)=C\C(=O)O` [Compound 141b, (2E,4E)-3-Methyl-6-oxo-6-[(2,3,5,6,7,8-hexahydro-5,5,8,8-tetramethyl)benzo-[f]-indol-1-yl]hexa-2,4-dienoic acid], for which the EC50 was 12 nM on RARγ [3]; 863 nM on RARα [4]; above 10000 nM on RXRβ [5]; above 10000 nM on RXRα [12]; 32 nM on RARβ [9]; 2930 nM on RXRγ [10].

With `CC1(C)CCC(C)(C)c2cc3c(cc21)CCC/C3=N\Nc1ccc(C(=O)O)cc1` [Compound 152b, E-4-[N'-(5,5,8,8-tetramethyl-3,4,5,6,7,8-hexahydro-2H-anthracen-1-ylidene)-hydrazino]benzoic acid], the EC50 is 32 nM on RARγ [3]; 651 nM at RARα [4]; above 10000 nM at RXRβ [5]; above 10000 nM at RXRα [12]; 8 nM on RARβ [9]; above 10000 nM on RXRγ [10].

For `CC(/C=C/C=C1/CCC(C)(C)c2cc3c(cc21)C(C)(C)CCC3(C)C)=C\C(=O)O` [Compound 106b, (2E,4E)-3-Methyl-6-[(Z)-1,2,3,4,5,6,7,8-hexahydro-4,4,5,5,8,8-hexamethyl-2H-anthracen-1-ylidene]hexa-2,4-dienoic acid], the EC50 on RARγ [3] is 14 nM; on RARα [4], 84 nM; on RXRβ [5], 52 nM; at RXRα [12] it was above 10000 nM; at RARβ [9], 20 nM; at RXRγ [10] it was 127 nM.

Regarding `CC(/C=C/CC1CCCc2cc3c(cc21)C(C)(C)CCC3(C)C)=C\C(=O)O` (racemic) [Compound 124b, (2E,4E)-3-Methyl-6-(1,2,3,4,5,6,7,8-octahydro-5,5,8,8-tetramethylanthracen-1-yl)hexa-2,4-dienoic acid], the EC50 on RARγ [3] came out at 94 nM; on RARα [4], 101 nM; at RXRβ [5] it was 37 nM; on RXRα [12], 38 nM; on RARβ [9], 33 nM; on RXRγ [10] it was 26 nM.

One may read the IC50 as the midpoint of a concentration-inhibition curve. The Kd is the constant that tells how readily two partners part at equilibrium.
